Measurements published in US12466839B2, “Allosteric AKT inhibitors for use in the treatment of Hereditary Hemorrhagic Telangiectasia” (VADERIS THERAPEUTICS AG, priority 2020, dated 2025).

Key:
[1] = system: tumor xenograft; assay: Tumor xenograft model; assay type: in vivo
[2] = system: KChIP2 (Homo sapiens); assay: Cardiac ion channel profile; assay type: cell-based
[3] = biological target: T1, P2Y1 (Homo sapiens, UniProt P47900); assay: Millipore Drug Discovery Safety and Liability Panel; assay type: cell-based
T1 construct: Millipore

[4] = system: MCF7 tumor cells; assay: IC50 in MCF7 tumor cells in vitro; assay type: cell-based; conditions: Homo sapiens
[5] = biological target: T2, PK1 (Homo sapiens, UniProt Q8TCW9); assay: Millipore Drug Discovery Safety and Liability Panel; assay type: cell-based
T2 construct: Millipore

[6] = biological target: T3, H2 (Homo sapiens, UniProt P25021); assay: as above; assay type: cell-based
T3 construct: purchased Millipore

[7] = biological target: HCN4 (Homo sapiens, UniProt Q9Y3Q4); assay: Cardiac ion channel profile; assay type: cell-based
[8] = biological target: T4, PAC1 (Homo sapiens, UniProt P41586); assay: Millipore Drug Discovery Safety and Liability Panel; assay type: cell-based
T4 construct: Millipore

[9] = biological target: T5, CCR2B (Homo sapiens, UniProt P41597); assay: as above; assay type: cell-based
T5 construct: purchased Millipore

[10] = biological target: T6, A2A (Homo sapiens, UniProt P29274); assay: as above; assay type: cell-based
T6 construct: purchased Millipore

[11] = biological target: T7, DP (Homo sapiens, UniProt Q13258); assay: as above; assay type: cell-based
T7 construct: purchased Millipore

[12] = biological target: T8, 5-HT2C (Homo sapiens, UniProt P28335); assay: as above; assay type: cell-based
T8 construct: purchased Millipore

[13] = biological target: T9, NTR1 (Homo sapiens, UniProt P30989); assay: as above; assay type: cell-based
T9 construct: Millipore

[14] = biological target: T10, GPR109A (Homo sapiens, UniProt Q8TDS4); assay: as above; assay type: cell-based
T10 construct: purchased Millipore

[15] = biological target: T11, A1 (Homo sapiens, UniProt P30542); assay: as above; assay type: cell-based
T11 construct: purchased Millipore

[16] = biological target: T12, C5aR (Homo sapiens, UniProt P21730); assay: as above; assay type: cell-based
T12 construct: purchased Millipore

[17] = biological target: T13, GPR14 (Homo sapiens, UniProt Q9UKP6); assay: as above; assay type: cell-based
T13 construct: purchased Millipore

[18] = biological target: T14, ADRA1D (DELTA2-79) (Homo sapiens, UniProt P25100); assay: as above; assay type: cell-based
T14 construct: purchased Millipore

[19] = biological target: T15, D2 (Homo sapiens, UniProt P14416); assay: as above; assay type: cell-based
T15 construct: purchased Millipore

[20] = biological target: T16, BLT1 (Homo sapiens, UniProt Q15722); assay: as above; assay type: cell-based
T16 construct: purchased Millipore

[21] = biological target: T17, OX1 (Homo sapiens, UniProt O43613); assay: as above; assay type: cell-based
T17 construct: Millipore

[22] = biological target: T18, ADRB2 (Homo sapiens, UniProt P07550); assay: as above; assay type: cell-based
T18 construct: purchased Millipore

[23] = biological target: T19, ADRA1A (Homo sapiens, UniProt P35348); assay: as above; assay type: cell-based
T19 construct: purchased Millipore

[24] = biological target: T20, ADRB1 (Homo sapiens, UniProt P08588); assay: as above; assay type: cell-based
T20 construct: purchased Millipore

[25] = biological target: T21, BDKR2 (Homo sapiens, UniProt P30411); assay: as above; assay type: cell-based
T21 construct: purchased Millipore

[26] = biological target: T22, V2 (Homo sapiens, UniProt P30518); assay: as above; assay type: cell-based
T22 construct: Millipore

[27] = biological target: T23, OPRM1 (Homo sapiens, UniProt P35372); assay: as above; assay type: cell-based
T23 construct: Millipore

[28] = biological target: T24, OT (Homo sapiens, UniProt P30559); assay: as above; assay type: cell-based
T24 construct: Millipore

[29] = biological target: p38α (Homo sapiens, UniProt Q16539); assay: Panel of 450 kinases and 10-point titration curve; assay type: biochemical
[30] = read-out: ANTAGONIST mean % inhibition
[31] = read-out: AGONIST mean % increase in activity

T20 sequence (P08588 whole entry): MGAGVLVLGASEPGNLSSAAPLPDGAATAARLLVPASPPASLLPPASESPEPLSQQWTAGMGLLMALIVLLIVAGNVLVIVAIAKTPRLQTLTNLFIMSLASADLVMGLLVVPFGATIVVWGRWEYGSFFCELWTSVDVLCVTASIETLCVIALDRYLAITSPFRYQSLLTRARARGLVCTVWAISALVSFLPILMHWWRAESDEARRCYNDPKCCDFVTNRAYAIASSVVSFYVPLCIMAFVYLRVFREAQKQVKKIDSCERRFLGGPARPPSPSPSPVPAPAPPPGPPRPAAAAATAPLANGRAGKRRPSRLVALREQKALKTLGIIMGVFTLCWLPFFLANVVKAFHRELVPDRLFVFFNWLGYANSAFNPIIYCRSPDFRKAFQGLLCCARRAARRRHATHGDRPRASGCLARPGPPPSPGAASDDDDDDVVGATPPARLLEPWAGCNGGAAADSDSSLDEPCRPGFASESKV
T16 sequence (Q15722 whole entry): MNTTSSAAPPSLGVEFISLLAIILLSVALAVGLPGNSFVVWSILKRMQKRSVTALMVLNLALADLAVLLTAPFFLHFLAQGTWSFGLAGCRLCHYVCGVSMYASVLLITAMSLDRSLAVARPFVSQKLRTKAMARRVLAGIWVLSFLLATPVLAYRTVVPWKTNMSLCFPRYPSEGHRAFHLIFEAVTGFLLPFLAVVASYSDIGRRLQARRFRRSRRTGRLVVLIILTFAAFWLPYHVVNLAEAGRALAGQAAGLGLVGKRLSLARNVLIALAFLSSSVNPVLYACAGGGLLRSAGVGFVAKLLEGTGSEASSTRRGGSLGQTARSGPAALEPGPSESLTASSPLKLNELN
T10 sequence (Q8TDS4 whole entry, species assumed): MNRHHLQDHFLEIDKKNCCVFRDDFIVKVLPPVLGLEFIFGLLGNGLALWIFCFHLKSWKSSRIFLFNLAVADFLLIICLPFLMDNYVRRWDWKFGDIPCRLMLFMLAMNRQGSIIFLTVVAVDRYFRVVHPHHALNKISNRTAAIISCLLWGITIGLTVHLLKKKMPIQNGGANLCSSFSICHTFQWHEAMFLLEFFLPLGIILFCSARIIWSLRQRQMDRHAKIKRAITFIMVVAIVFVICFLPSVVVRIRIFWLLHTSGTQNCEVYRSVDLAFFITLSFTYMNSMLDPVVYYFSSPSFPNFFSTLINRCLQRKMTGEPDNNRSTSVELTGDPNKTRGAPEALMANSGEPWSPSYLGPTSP
T6 sequence (P29274 whole entry): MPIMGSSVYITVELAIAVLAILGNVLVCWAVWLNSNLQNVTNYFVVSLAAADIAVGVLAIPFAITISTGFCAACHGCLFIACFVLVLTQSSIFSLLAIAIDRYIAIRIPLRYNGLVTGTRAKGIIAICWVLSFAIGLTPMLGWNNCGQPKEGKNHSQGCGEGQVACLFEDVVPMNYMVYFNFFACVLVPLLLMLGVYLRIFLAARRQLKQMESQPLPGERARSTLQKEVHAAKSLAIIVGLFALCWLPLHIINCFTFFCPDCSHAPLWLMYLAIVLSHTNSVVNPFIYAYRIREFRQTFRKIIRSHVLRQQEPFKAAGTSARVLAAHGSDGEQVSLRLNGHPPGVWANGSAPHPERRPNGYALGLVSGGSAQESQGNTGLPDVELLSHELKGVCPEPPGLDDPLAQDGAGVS
T23 sequence (P35372 whole entry, species assumed): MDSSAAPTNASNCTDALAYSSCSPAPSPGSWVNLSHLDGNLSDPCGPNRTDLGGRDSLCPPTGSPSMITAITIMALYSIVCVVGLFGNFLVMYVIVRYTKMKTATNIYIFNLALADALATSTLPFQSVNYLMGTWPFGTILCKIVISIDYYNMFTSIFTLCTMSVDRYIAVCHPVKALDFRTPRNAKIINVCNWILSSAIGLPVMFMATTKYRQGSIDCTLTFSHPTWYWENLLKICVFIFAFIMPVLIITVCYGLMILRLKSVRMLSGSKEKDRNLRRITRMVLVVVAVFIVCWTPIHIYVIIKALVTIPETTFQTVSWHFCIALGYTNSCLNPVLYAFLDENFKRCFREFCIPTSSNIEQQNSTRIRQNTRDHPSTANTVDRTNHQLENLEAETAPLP
T11 sequence (P30542 whole entry): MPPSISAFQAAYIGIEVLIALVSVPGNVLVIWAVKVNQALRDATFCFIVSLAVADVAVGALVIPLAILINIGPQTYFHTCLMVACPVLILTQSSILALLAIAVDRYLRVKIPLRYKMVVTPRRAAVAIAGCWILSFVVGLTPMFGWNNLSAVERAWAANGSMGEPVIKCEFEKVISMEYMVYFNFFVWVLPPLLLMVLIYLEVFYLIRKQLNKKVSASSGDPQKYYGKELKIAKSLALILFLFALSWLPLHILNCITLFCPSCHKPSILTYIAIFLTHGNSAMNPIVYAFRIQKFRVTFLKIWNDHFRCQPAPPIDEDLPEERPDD
T7 sequence (Q13258 whole entry): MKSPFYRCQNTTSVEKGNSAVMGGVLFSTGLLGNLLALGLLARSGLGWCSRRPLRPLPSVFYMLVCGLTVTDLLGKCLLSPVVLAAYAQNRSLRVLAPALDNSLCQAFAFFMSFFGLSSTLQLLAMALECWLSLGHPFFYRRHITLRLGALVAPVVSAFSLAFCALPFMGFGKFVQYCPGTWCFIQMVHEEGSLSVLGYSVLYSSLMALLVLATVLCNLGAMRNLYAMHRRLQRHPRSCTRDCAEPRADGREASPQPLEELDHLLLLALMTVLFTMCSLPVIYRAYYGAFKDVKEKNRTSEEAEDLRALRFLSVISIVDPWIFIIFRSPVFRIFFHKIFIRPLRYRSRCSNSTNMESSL
T4 sequence (P41586 21-468): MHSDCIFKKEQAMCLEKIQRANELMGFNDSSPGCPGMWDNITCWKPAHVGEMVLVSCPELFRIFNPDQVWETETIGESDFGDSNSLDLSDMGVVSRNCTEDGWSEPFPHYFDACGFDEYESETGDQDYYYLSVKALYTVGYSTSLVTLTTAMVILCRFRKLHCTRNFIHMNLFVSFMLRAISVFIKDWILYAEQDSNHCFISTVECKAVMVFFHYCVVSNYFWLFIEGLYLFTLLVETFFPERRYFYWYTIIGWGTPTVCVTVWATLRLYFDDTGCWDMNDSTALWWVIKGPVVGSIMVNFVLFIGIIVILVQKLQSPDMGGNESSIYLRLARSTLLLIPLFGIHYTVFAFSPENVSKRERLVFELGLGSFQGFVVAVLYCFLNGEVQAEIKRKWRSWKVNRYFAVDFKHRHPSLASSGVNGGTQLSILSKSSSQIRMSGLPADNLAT
T3 sequence (P25021 whole entry): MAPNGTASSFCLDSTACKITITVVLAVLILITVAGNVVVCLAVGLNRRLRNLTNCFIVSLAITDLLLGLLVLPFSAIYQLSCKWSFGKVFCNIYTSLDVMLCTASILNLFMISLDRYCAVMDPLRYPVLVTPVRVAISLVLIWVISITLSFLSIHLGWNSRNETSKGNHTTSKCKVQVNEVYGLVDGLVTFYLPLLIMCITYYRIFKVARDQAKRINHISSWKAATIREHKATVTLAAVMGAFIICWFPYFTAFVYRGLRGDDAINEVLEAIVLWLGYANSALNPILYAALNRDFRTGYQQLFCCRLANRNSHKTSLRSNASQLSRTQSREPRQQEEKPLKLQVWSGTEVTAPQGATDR
T8 sequence (P28335 33-458, species assumed): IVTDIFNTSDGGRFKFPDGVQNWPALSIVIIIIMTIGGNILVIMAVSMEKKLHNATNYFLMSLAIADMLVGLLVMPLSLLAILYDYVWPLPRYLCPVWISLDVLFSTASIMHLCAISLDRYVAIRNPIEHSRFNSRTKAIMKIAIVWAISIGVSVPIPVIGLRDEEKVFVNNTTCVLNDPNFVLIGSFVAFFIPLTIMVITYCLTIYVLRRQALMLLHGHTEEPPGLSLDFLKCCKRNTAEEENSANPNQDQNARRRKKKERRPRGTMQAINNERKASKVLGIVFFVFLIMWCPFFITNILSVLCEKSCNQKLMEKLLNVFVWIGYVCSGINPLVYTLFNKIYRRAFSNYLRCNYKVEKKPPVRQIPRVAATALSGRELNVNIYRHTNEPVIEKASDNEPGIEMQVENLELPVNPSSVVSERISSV
T14 sequence (P25100 with tags, fused parts or gaps limits assumed): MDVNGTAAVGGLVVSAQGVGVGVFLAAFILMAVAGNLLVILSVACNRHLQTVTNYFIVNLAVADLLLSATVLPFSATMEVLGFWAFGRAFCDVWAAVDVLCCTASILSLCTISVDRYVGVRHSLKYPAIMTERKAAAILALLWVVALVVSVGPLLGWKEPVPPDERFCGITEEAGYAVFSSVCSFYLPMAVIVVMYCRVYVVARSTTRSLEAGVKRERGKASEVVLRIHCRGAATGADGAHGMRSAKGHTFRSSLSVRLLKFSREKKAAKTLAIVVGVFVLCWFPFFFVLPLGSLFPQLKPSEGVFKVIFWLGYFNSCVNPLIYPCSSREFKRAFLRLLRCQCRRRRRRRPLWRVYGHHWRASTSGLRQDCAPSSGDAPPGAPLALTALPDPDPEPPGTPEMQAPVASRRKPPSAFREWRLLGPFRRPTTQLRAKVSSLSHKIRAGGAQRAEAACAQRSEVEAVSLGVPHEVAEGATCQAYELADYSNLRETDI
T5 sequence (P41597 1-360 isoform P41597-2): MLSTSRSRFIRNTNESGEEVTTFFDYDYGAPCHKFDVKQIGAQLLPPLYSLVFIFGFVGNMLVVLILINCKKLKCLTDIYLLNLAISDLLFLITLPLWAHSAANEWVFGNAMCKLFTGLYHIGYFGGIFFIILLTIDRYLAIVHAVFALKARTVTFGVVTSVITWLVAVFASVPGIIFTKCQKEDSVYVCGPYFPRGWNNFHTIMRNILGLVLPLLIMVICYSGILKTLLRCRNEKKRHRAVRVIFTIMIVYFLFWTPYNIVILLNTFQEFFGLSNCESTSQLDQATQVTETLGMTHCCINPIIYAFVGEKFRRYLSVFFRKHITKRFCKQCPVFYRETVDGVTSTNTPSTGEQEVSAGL

With `CCN1C(=O)COc2nc(-c3ccc(C4(N)CC(O)C4)cc3)c(-c3ccccc3)cc21.O=C(O)C(O)C(O)C(=O)O` [VAD044, 6-(4-(1-amino-3-hydroxycyclobutyl)phenyl)-1-ethyl-7-phenyl-1H-pyrido[2,3-b][1,4]oxazin-2(3H)-one L-tartrate] as the compound, how does the “minimal effective dose in vivo” value [1] read?
Its value is 30 mg/kg.

And the inhibition at 10 µM [2]?
The inhibition at 10 µM was less than 25%.

And the “AGONIST mean % increase in activity” value ([3]; 10 μM)?
The value was 1%.

What about the inhibition at 10 µM [3, 30] of the same compound?
Its inhibition at 10 µM is 50.6%.

And the IC50 [4]?
Its IC50 is roughly 50 nM.

And the inhibition at 10 µM ([5]; PK-1, read-out: ANTAGONIST mean % inhibition)?
Its inhibition at 10 µM is -2.1%.

What about the activation at 10 µM ([5]; PK-1, PK1, 10 μM, read-out: AGONIST mean % increase in activity) of the same compound?
The activation at 10 µM was 0%.

What about the activation at 10 µM ([6]; H2, 10 μM, read-out: AGONIST mean % increase in activity) of the same compound?
The activation at 10 µM was -0.2%.

And the inhibition at 10 µM [6, 30]?
The inhibition at 10 µM was -1.8%.

What about the inhibition at 10 µM [7] of the same compound?
Its inhibition at 10 µM is less than 25%.

What about the activation at 10 µM ([8]; PAC1, 10 μM, read-out: AGONIST mean % increase in activity) of the same compound?
The activation at 10 µM was -0.6%.

What about the inhibition at 10 µM [8, 30] of the same compound?
Its inhibition at 10 µM is 1.1%.

What about the activation at 10 µM ([9]; CCR2B, 10 μM, read-out: AGONIST mean % increase in activity) of the same compound?
The activation at 10 µM was -0.1%.

What about the inhibition at 10 µM [9, 30] of the same compound?
The inhibition at 10 µM was 9.1%.

What about the “AGONIST mean % increase in activity” value ([10]; A2A, 10 μM) of the same compound?
The value was 2.3%.

And the inhibition at 10 µM [10, 30]?
The inhibition at 10 µM was 12.5%.

What about the activation at 10 µM ([11]; DP, 10 μM, read-out: AGONIST mean % increase in activity) of the same compound?
Its activation at 10 µM is -1.7%.

What about the inhibition at 10 µM [11, 30] of the same compound?
Its inhibition at 10 µM is 5.8%.

And the activation at 10 µM [12, 31]?
The activation at 10 µM was 0.8%.

And the inhibition at 10 µM [12, 30]?
The inhibition at 10 µM was 21.9%.

And the activation at 10 µM ([13]; NTR1, 10 μM, read-out: AGONIST mean % increase in activity)?
The activation at 10 µM was -0.6%.

And the inhibition at 10 µM [13, 30]?
The inhibition at 10 µM was 6.1%.

What about the activation at 10 µM ([14]; GPR109A, 10 μM, read-out: AGONIST mean % increase in activity) of the same compound?
Its activation at 10 µM is -0.7%.

And the inhibition at 10 µM [14, 30]?
Its inhibition at 10 µM is 3.1%.

What about the activation at 10 µM ([15]; A1, 10 μM, read-out: AGONIST mean % increase in activity) of the same compound?
The activation at 10 µM was 0%.

What about the inhibition at 10 µM [15, 30] of the same compound?
The inhibition at 10 µM was 7.7%.

What about the activation at 10 µM ([16]; C5aR, 10 μM, read-out: AGONIST mean % increase in activity) of the same compound?
Its activation at 10 µM is -1.2%.

And the inhibition at 10 µM [16, 30]?
Its inhibition at 10 µM is 1.5%.

What about the activation at 10 µM [17, 31] of the same compound?
The activation at 10 µM was 29.5%.

What about the inhibition at 10 µM [17, 30] of the same compound?
Its inhibition at 10 µM is 52.9%.

And the activation at 10 µM ([18]; ADRA1D (DELTA2-79), 10 μM, read-out: AGONIST mean % increase in activity)?
The activation at 10 µM was -0.1%.

What about the inhibition at 10 µM [18, 30] of the same compound?
Its inhibition at 10 µM is 7%.

And the activation at 10 µM ([19]; D2, 10 μM, read-out: AGONIST mean % increase in activity)?
Its activation at 10 µM is -1.1%.

And the inhibition at 10 µM [19, 30]?
The inhibition at 10 µM was -0.2%.

What about the activation at 10 µM ([20]; BLT1, 10 μM, read-out: AGONIST mean % increase in activity) of the same compound?
Its activation at 10 µM is -0.2%.

And the inhibition at 10 µM [20, 30]?
The inhibition at 10 µM was 5.6%.

And the activation at 10 µM ([21]; OX1, 10 μM, read-out: AGONIST mean % increase in activity)?
The activation at 10 µM was -1.8%.

What about the inhibition at 10 µM [21, 30] of the same compound?
Its inhibition at 10 µM is -3.8%.

And the activation at 10 µM ([22]; ADRB2, 10 μM, read-out: AGONIST mean % increase in activity)?
The activation at 10 µM was 0.8%.

What about the inhibition at 10 µM [22, 30] of the same compound?
The inhibition at 10 µM was 6.1%.

And the activation at 10 µM ([23]; ADRA1A, 10 μM, read-out: AGONIST mean % increase in activity)?
Its activation at 10 µM is -0.7%.

And the inhibition at 10 µM [23, 30]?
Its inhibition at 10 µM is 9.9%.

What about the activation at 10 µM ([24]; ADRB1, 10 μM, read-out: AGONIST mean % increase in activity) of the same compound?
The activation at 10 µM was -0.1%.

And the inhibition at 10 µM [24, 30]?
The inhibition at 10 µM was 4.2%.

What about the activation at 10 µM ([25]; BDKR2, 10 μM, read-out: AGONIST mean % increase in activity) of the same compound?
The activation at 10 µM was -0.4%.

What about the inhibition at 10 µM [25, 30] of the same compound?
The inhibition at 10 µM was 14.6%.

And the activation at 10 µM [26, 31]?
Its activation at 10 µM is -1.5%.

And the inhibition at 10 µM [26, 30]?
Its inhibition at 10 µM is 22.8%.

What about the inhibition at 10 µM ([27]; OPRM1, read-out: ANTAGONIST mean % inhibition) of the same compound?
The inhibition at 10 µM was 2.4%.

And the activation at 10 µM ([27]; OPRM1, 10 μM, read-out: AGONIST mean % increase in activity)?
Its activation at 10 µM is -2%.

What about the activation at 10 µM [28, 31] of the same compound?
Its activation at 10 µM is -1.2%.

And the inhibition at 10 µM [28, 30]?
Its inhibition at 10 µM is 29.5%.

What about the inhibition at 10 µM ([29]; 10 μM) of the same compound?
Its inhibition at 10 µM is 84%.

And the IC50 ([29]; 10-point titration curve)?
The IC50 was greater than 10000 nM.
